Results from US8809372B2, “Pyridine derivatives” (Endo Pharmaceuticals, Inc., priority 2011, dated 2014).
pIC50: −log10 of the molar value.

Columns and labels:
serum testosterone level = experiment: In vivo inhibition of testosterone production; design: species or system rat; conditions: male rats, vs vehicle-dosed controls
Description: In vivo Inhibition of Testosterone Production
Male rats aged 8 to 10 weeks old were dosed orally with compounds at 10 or 30 mg/kg. Blood samples were drawn at 0.5, 3, 8, and 24 hours and were processed to plasma samples. Samples were analyzed for compound levels by LC-MS/MS method and for testosterone levels with an ELISA performed as per manufacturer's protocol (Parameter Testosterone Assay, Cat. No. KGE010, R&D systems; http://www.mdsystems.com/pdf/KGE010.pdf). The serum testosterone level was calculated from standards using GraphPad® Prism software and % inhibition at a given time was calculated by comparing the testosterone level in vehicle control animals at the same time of day.

[1] = tested on: prostate and seminal vesicle weights; experiment: In vivo reduction of prostate and seminal vesicle weights; design: species or system rat; conditions: male rats
Description: In vivo Reduction of Prostate and Seminal Vesicle Weights Male rats aged 8 to 10 weeks old (5 animals per group) were dosed orally with compounds once or twice a day at 12-hour intervals for 14 days. On day 14 the animals were euthanized and organs were surgically removed for wet weight determination including the prostate, seminal vesicles and testes.

human CYP17 = molecular target: T1, human CYP17 (Homo sapiens, UniProt P05093); experiment: CYP17 inhibition assay in yeast microsomes overexpressing human CYP17; type: biochemical; conditions: yeast microsomes expressing human CYP17
T1 construct: purchased Premas Biotech, India; host or cells: yeast (microsomes)
T1 sequence (P05093 1-508): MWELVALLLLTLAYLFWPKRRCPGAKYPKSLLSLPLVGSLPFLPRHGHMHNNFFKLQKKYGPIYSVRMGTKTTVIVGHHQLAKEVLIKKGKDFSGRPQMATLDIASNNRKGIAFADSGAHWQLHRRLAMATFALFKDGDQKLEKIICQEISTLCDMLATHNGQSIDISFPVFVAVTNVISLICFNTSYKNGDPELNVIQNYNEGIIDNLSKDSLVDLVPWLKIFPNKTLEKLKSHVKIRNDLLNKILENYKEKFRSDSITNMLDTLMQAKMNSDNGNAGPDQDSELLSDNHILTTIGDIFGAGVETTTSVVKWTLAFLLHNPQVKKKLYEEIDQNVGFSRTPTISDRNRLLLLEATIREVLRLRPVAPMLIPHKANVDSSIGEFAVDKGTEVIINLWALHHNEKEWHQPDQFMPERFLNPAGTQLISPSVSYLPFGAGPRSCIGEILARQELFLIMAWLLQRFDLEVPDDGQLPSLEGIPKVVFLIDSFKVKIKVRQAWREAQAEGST
Description: CYP17 Inhibition Assay in Rat Testicular Microsomes (Rat CYP17) or Yeast Microsome Overexpressing Human CYP17
1. NADPH (Sigma): A working stock was prepared by adding 25 μL of 6.5 mM NADPH in each tube. The final concentration of NADPH used in the assay was 325 μM.
2. Potassium Phosphate Buffer: One molar (1M) solutions of K2HPO4 and KH2PO4 were prepared. Eight mL of the 1 M KH2PO4 and 1.98 mL of the 1 M K2HPO4 were combined and the pH was adjusted to 7.4.
3. ^3H3-17α-hydroxypregnenolone (American Radiolabeled Chemicals, Inc., stock 1 μCi/μL): A 1:1 dilution of ^3H3-17α-hydroxypregnenolone in ethanol was prepared by combining 100 μL ^3H3-17α-hydroxypregnenolone+100 μL ethanol for one complete 96 well plate. For the reaction, 2 μL of the diluted ^3H3-17α-hydroxypregnenolone was added in each tube, i.e., 1 μCi/reaction. 4. Microsome Isolation Buffer: The microsome isolation buffer was prepared by combining 250 mM Sucrose, 5 mM EDTA, 10 mM Tris HCl, 4 mM DTT, and adjusting to pH 7.4. 5. TEG Buffer: The TEG buffer was prepared by combining 50 mM Tris HCl, 1 mM EDTA, and 20% Glycerol. 6. Rat Testicular Microsomes: Rat testis tissue was collected and disrupted with 30 strokes of a glass homogenizer on ice with 250 μL of microsome isolation buffer, followed by centrifugation at 10,000 g for 10 minutes at 4° C. The supernatant was collected and centrifuged at 100,000 g for 45 minutes at 4° C. The pellet was dissolved in TEG Buffer and the protein was quantified. The homogenized microsome samples were then frozen at −80° C. • 7. Yeast Microsomes which overexpress the human CYP17 enzyme were obtained from Premas Biotech, India.
Potassium phosphate buffer (470 μL) was prepared as described above and was added to each well of a deep well plate. The test compound was diluted using a TECAN liquid handler and 5 μL of diluted compound was transferred to each well (96 deep well/1 mL). A solution (25 μL) of 6.5 mM NADPH was added (final concentration of 325 μM in the assay). ^3H3-17α-hydroxypregnenolone (2 μL of the working stock) was added to each tube. The plates were then pre-incubated for 15 minutes at 37° C. Following the pre-incubation, either 5 μL rat testicular microsomes (150-160 μg) or 5 μL of yeast microsomes expressing human CYP17 (1.7 pmol), was added. Incubation was at 37° C. for 60 minutes in the presence of oxygen. The plates were then placed in ice and chloroform (500 μL) was added, mixed well and incubated at 4° C. for 20 minutes. The plates were then centrifuged at 1000 rpm for 15 minutes at 4° C.
A portion (300 μL) of the aqueous solution was collected and mixed with a 5% aqueous suspension of activated charcoal (300 μL). The plates were then incubated at 4° C. for 30 minutes, after which the plates were centrifuged at 1000 rpm for 15 minutes at 4° C. From this, 125 μL of the aqueous solution was collected and plated into a 96 well plate. Microscint™ 40 [125 μL, Perkin-Elmer; containing a mixture of a polymer based on alkylphenolethoxylate (20-40%), diethanolamine-phosphoric acid ester ammonium salt (10-20%), sodium dioctyl sulphosuccinate (2.5-10%), triethyl phosphate (2.5-10%), 3,6-dimethyl-4-octyne-3,6-diol (≦2.5%), a polymer based on nonylphenolethoxylate (≦2.5%), diisopropyl naphthalene isomers (40-60%), 2,5-diphenyloxazole (≦2.5%), and 9,10-dimethylanthracene] was added and mixed well. After 30 minutes of incubation, the samples were analyzed with a MicroBeta® Trilux microplate liquid scintillation counter and luminometer (Perkin-Elmer).

[2] = 30 mg/kg orally once a day for 14 days
[3] = 3-8 hours after a 30 mg/kg oral dose
[4] = 30 mg/kg orally twice a day for 14 days

Row | SMILES | pIC50 (human CYP17) | reduction of prostate weight [1, 4] | further results
1 | CC(O)(c1ccncc1)c1cnc(-c2ccc(F)cc2)s1 (racemic) [Example 7, 1-(2-(4-Fluorophenyl)thiazol-5-yl)-1-(pyridin-4-yl)ethanol] | 6.70 to 7.30 | – | decrease of serum testosterone levels (serum testosterone level; 3-8 hours after a 10 mg/kg oral dose): 70-85%; melting point: 229 to 232 °C; reduction of prostate weight [1, 2]: about 50%; reduction of seminal vesicle weight [1, 2]: about 60%
2 | Cn1cc(-c2ccc(C(C)(O)c3ccncc3)s2)ccc1=O (stereo not shown) [Example 15, 5-(5-(1-Hydroxy-1-(pyridin-4-yl)ethyl)thiophen-2-yl)-1-methyl-pyridin-2(1H)-one] | 5.00 to 6.70 | – | –
3 | CC(O)(c1ccncc1)c1ncc(-c2ccc(F)cc2)s1 (stereo not shown) [Example 14, 1-(5-(4-Fluorophenyl)thiazol-2-yl)-1-(pyridin-4-yl)ethanol] | – | – | decrease of serum testosterone levels (serum testosterone level; [3]): 60-80%
4 | CC(O)(c1ccncc1)c1cnc(-c2ccc(F)cc2)s1 (single isomer, unassigned) [Example 9, 1-(2-(4-fluorophenyl)thiazol-5-yl)-1-(pyridin-4-yl)ethanol] | 6.70 to 7.30 | – | –
5 | CC(O)(c1ccncc1)c1cnc(-c2ccc(F)cc2)s1 (single isomer, unassigned) [Example 8, 1-(2-(4-fluorophenyl)thiazol-5-yl)-1-(pyridin-4-yl)ethanol] | 5.00 to 6.70 | – | –
6 | CC(O)(c1ccncc1)c1nc(-c2ccc(F)cc2)no1 (stereo not shown) [Example 34, 1-(3-(4-Fluorophenyl)-1,2,4-oxadiazol-5-yl)-1-(pyridin-4-yl)ethanol] | – | about 50% | –
7 | CC(O)(c1ccncc1)c1nc(-c2ccc(F)cc2)no1 (single isomer, unassigned; (+)) [Example 36, (+)-1-(3-(4-fluoro-phenyl)-1,2,4-oxadiazol-5-yl)-1-(pyridin-4-yl)ethanol] | > 7.30 | about 50% | –
8 | Cn1cc(-c2ccc(C(C)(O)c3ccncc3)s2)ccc1=O (single isomer, unassigned; (-)) [Example 17, (−)-5-(5-(1-hydroxy-1-(pyridin-4-yl)ethyl)thiophen-2-yl)-1-methylpyridin-2(1H)-one] | 6.70 to 7.30 | about 50% | decrease of serum testosterone levels (serum testosterone level; [3]): 30-60%
9 | COc1ccc(-c2ccc(C(C)(O)c3ccncc3)nc2)cc1 (racemic) [Example 1, 1-(5-(4-Methoxyphenyl)pyridin-2-yl)-1-(pyridin-4-yl)ethanol] | 5.00 to 6.70 | – | –
